Several values for one entry are separate records, joined by “and”; a condition that tells them apart may be missing. Equal entries are not always repeated. Where two headings read alike, the source gives them in different places.
Legend:
[1] = Cyclic voltammetry of isoindigos in DMF (half-wave redox potentials under N2 or CO2); type: physicochemical; conditions: for E1/2 (IId/IId·−) in N2: Table 1, first electron transfer, N2, DMF; for E1/2 in N2 (first): first half-wave potential vs. Fc^+/Fc; for E1/2 in N2 (first) / E1/2 in N2 (second) / E1/2 in CO2 (first or single) / E1/2 in CO2 (second): 2.5 mM in DMF; for E1/2 in N2 (first) / E1/2 in N2 (second): 0.1 M NBu4PF6, N2, 298 K; for E1/2 in N2 (second) / E1/2 in CO2 (second): second half-wave potential vs. Fc^+/Fc; for E1/2 in CO2 (first or single) / E1/2 in CO2 (second): 0.1 M NBu4PF6, CO2, 298 K
Description: (§1) Electrochemical measurements were conducted using a BioLogic VSP potentiostat (BioLogic Science Instruments). For the cyclic voltammetry measurements, glassy carbon (Ø=3 mm) was used as the working electrode, platinum wire was used as the counter electrode, silver wire was used as the pseudo-reference electrode and ferrocene was used as the internal reference. In a standard cyclic voltammetry measurement, the molecule of interest (2.5 mM) was dissolved in anhydrous DMF with 100 mM NBu4PF6 as the supporting salt. Typical cyclic voltammograms were collected at a scan rate of […]. To study the effects of ionic species on the redox behaviour of the sorbent molecules, 100 mM LiClO4, NaClO4, KClO4, NBu4ClO4, sodium triflate (NaOTf), or sodium bis(trifluoromethanesulfonyl)imide (NaTFSI) was used as the supporting electrolyte salt.

[2] = CO2 binding constant (KCO2) calculated from the shift of the second reduction peak in CV; conditions: for K[CO2] / logK[CO2]: DMF; for ΔEpeak(2): difference between the second reduction peak potentials (IId·−/IId2−) in CO2 and N2
Description: as §1
The CO2 binding constant (KCO2) was calculated by Eq 1: […]

[3] = UV-vis absorption, optical band gap; type: physicochemical; conditions: UV-vis absorption (Kubelka-Munk spectra)
Description: UV-vis absorption spectra were recorded on a Thermo Scientific Genesys 10S UV-vis spectrophotometer.

[4] = DMF, cited from earlier work; for E1/2 (1) in CO2: first half-wave potential; for E1/2 (1) in CO2 / E1/2 (2) in CO2 / E1/2 (2) in N2: vs. Fc^+/Fc; for E1/2 (1) in CO2 / E1/2 (2) in CO2: under CO2; for E1/2 (2) in CO2 / E1/2 (2) in N2: second half-wave potential; for E1/2 (2) in N2: under N2
[5] = Chronoamperometry: reaction rate constant between isoindigo radical anion and CO2; conditions: isoindigo 5 mM in DMF, 0.1 M NBu4PF6
Source text: In electrochemistry, the Cottrell equation describes the current response (i) when the potential is a step function in time (t):
where i is current, n is the number of electrons transferred per molecule, A is the area of the electrode, C*0 is the bulk concentration of the redox-active isoindigo molecule, D is the diffusion coefficient, and t is time. The expected current for a diffusion limited electrochemical process following an ECE (electron transfer, chemical reaction, electron transfer) mechanism at a plane electrode under diffusion-controlled conditions is:
where n1 and n2 are the number of electrons transferred in the first and second step, respectively, and kf is the forward reaction rate constant of the chemical reaction. Here, to calculate kf after the first electron transfer, n2 and n1 are set to 1. Eq 3 then becomes:
The integrated Cottrell equation relates total charge Q with time for chronoamperometry: […]
Then, the constant k can be calculated, here k is assumed constant:
To calculate kf, the constant k is calculated using Eq 5 using potentiostatic measurements. Plugging in Eq 6, and rearranging Eq 4 gives:
The data for determining kf is shown in FIGS. 22 to 25 using 5 mM sorbent molecules in 0.1 M NBu4PF6 DMF electrolyte. The value k was determined using data under N2; kf was obtained under 1 bar 20% CO2 (0.0396 M CO2 in solution).

SMILES | E1/2 in N2 (first) [1] | E1/2 in N2 (second) [1] | E1/2 in CO2 (first or single) ([1]; vs. Fc^+/Fc) | K[CO2] ([2]; 298 K) | logK[CO2] ([2]; 298 K) | ΔEpeak(2) [2] | Optical band gap [3] | logKCO2 [4] | E1/2 (1) in CO2 [4] | E1/2 (2) in CO2 [4] | E1/2 (2) in N2 [4] | other results
O=C1c2ccccc2C(=O)c2ccccc21 [AQ, anthraquinone] | – | – | – | – | – | – | – | 13.39 | −1.4 V | −1.4 V | −2.15 V | logKCO2 ([4]; listed as anthraquinone): approximately 13.4
CCCOC(=O)c1ccc2c(c1)C(=O)c1ccccc1C2=O [AQ-COO- C3H7] | – | – | – | – | – | – | – | 2.56 | −1.29 V | −1.89 V | −2 V | –
O=C1c2ccccc2C(=O)c2cc(Cl)ccc21 [AQ-Cl] | – | – | – | – | – | – | – | 2.73 | −1.25 V | −1.88 V | −2 V | –
CCCOc1ccc2c(c1)C(=O)c1ccccc1C2=O [AQ-O-C3H7] | – | – | – | – | – | – | – | 11.70 | −1.55 V | −1.55 V | −2.2 V | –
O=C1C=C(Cl)C(=O)C(Cl)=C1 [BQ-Cl2] | – | – | – | – | – | – | – | 1.86 | −0.7 V | −1.59 V | −1.66 V | –
O=C1C(Cl)=C(Cl)C(=O)C(Cl)=C1Cl [BQ-Cl4] | – | – | – | – | – | – | – | 1.28 | −0.48 V | −1.38 V | −1.42 V | –
O=C1C=CC(=O)C=C1 [BQ] | – | – | – | – | – | – | – | 18.12 | −0.95 V | −0.95 V | −1.98 V | –
CC1=C(C)C(=O)C(C)=C(C)C1=O [DBQ] | – | – | – | – | – | – | – | 17.61 | −1.39 V | −1.39 V | −2.39 V | –
CC(C)(C)C1=CC(=O)C=C(C(C)(C)C)C1=O [TBQ] | – | – | – | – | – | – | – | 18.29 | −1.25 V | −1.25 V | −2.29 V | –
O=C1C(Cl)=C(Cl)C(=O)c2ccccc21 [p-NQ-Cl2] | – | – | – | – | – | – | – | 2.73 | −0.9 V | −1.63 V | −1.75 V | –
O=C1C=CC(=O)c2ccccc21 [p-NQ] | – | – | – | – | – | – | – | 14.74 | −1.23 V | −1.23 V | −2.06 V | –

The next lines start with results.

E1/2 in N2 (first) [1] | E1/2 in N2 (second) [1] | E1/2 in CO2 (first or single) ([1]; vs. Fc^+/Fc) | K[CO2] ([2]; 298 K) | logK[CO2] ([2]; 298 K) | ΔEpeak(2) [2] | Optical band gap [3] | SMILES | logKCO2 [4] | E1/2 (1) in CO2 [4] | E1/2 (2) in CO2 [4] | E1/2 (2) in N2 [4] | other results
−1.19, V | −1.67 V | −1.11 V | 1.12e+09 M⁻¹ | 9.05 | 0.494 V | 2.04 eV | O=C1Nc2ccccc2/C1=C1\C(=O)Nc2ccc(Br)cc21 [5BIId, 5-Bromoisoindigo] | – | – | – | – | E1/2 (IId/IId·−) in N2 [1]: −1.19 V vs. Fc^+/Fc; Experimental 1st half-wave potential in N2 ([1]; Table 5, vs. Fc^+/Fc): −1.19 V; logK[CO2] ([2]; Table 1): 9.05
−1.08 V and −1.08, V | −1.55 V | −1.08 V | 4.45e+08 M⁻¹ | 8.65 | 0.470 V | 1.71 eV | COc1ccc2c(c1)/C(=C1\C(=O)Nc3ccc([N+](=O)[O-])cc31)C(=O)N2 [5M5NIId, 5-Methoxyl-5′-nitroisoindigo] | – | – | – | – | –
−0.93 V and −0.93, V | −1.40 V | −0.94, V | 41500 M⁻¹ | 4.62 | 0.232 V | 2.08 eV | COC(=O)c1ccc2c(c1)NC(=O)/C2=C1/C(=O)Nc2ccc([N+](=O)[O-])cc21 [5N6MCIId, Methyl-5-nitroisoindigo-6-carboxylate] | – | – | – | – | E1/2 in CO2 (second) [1]: −1.15 V
−1.08 V and −1.08, V | −1.57 V | −1.08 V | 7.63e+08 M⁻¹ | 8.88 | 0.484 V | 2.07 eV | O=C1Nc2ccccc2/C1=C1\C(=O)Nc2ccc([N+](=O)[O-])cc21 [5NIId, 5-Nitroisoindigo] | – | – | – | – | –
−1.05, V | −1.55 V | −1.05 V | 8.34e+08 M⁻¹ | 8.92 | 0.486 V | 2.02 eV | COC(=O)c1ccc2c(c1)NC(=O)/C2=C1/C(=O)Nc2cc(Br)ccc21 [6B6MCIId, Methyl 6-bromoisoindigo-6′-carboxylate] | – | – | – | – | –
−1.21, V | −1.75 V | −1.14 V | 6.25e+09 M⁻¹ | 9.8 | 0.538 V | 2.05 eV | O=C1Nc2ccccc2/C1=C1\C(=O)Nc2cc(Br)ccc21 [6BIId, 6-Bromoisoindigo] | – | – | – | – | –
−1.09, V | −1.35 V | −1.06, V | 750 M⁻¹ | 2.87 | 0.129 V | 2.01 eV | O=C1Nc2ccccc2/C1=C1\C(=O)Nc2cc(C(=O)O)ccc21 [6CIId, Isoindigo-6-carboxylic Acid] | – | – | – | – | E1/2 in CO2 (second) [1]: −1.18 V
−1.14, V | −1.69 V | −1.13 V | 9.13e+09 M⁻¹ | 9.96 | 0.547 V | 1.97 eV | O=C1Nc2ccc(F)cc2/C1=C1\C(=O)Nc2ccc(F)cc21 [55DFIId, 5,5′-Difluoroisoindigo] | – | – | – | – | –
−1.29 V and −1.29, V | −1.76 V | −1.2 V | 1.13e+09 M⁻¹ | 9.05 | 0.494 V | 1.78 eV | COc1ccc2c(c1)/C(=C1\C(=O)Nc3ccc(OC)cc31)C(=O)N2 [55DMIId, 5,5′-Dimethoxylisoindigo] | – | – | – | – | E1/2 (IId/IId·−) in N2 [1]: −1.29 V vs. Fc^+/Fc; logK[CO2] ([2]; Table 1): 9.05
−1.10, V | −1.68 V | −1.1 V | 2.17e+10 M⁻¹ | 10.3 | 0.570 V | 2.02 eV | O=C1Nc2cc(F)c(F)cc2/C1=C1\C(=O)Nc2cc(F)c(F)cc21 [5566TFIId, 5,5′,6,6′-Tetrafluoroisoindigo] | – | – | – | – | –
−1.23, V | −1.80 V | −1.16, V | 4.19e+06 M⁻¹ | 6.62 | 0.350 V | 2.00 eV | CCCCC(CC)CN1C(=O)/C(=C2/C(=O)N(CC(CC)CCCC)c3ccccc32)c2ccccc21 (stereo not shown) [NNDEHIId, N,N′-Di-(2-ethylhexyl)-isoindigo] | – | – | – | – | E1/2 in CO2 (second) [1]: −1.45 V
−1.07, V | −1.61 V | −1.08, V | 74800 M⁻¹ | 4.48 | 0.247 V | 2.02 eV | CCCN1C(=O)/C(=C2/C(=O)N(CCC)c3cc(Br)ccc32)c2ccc(Br)cc21 [NNDPr66DBIId, N,N′-Dipropyl-6,6′-dibromoisoindigo] | – | – | – | – | E1/2 (IId/IId·−) in N2 [1]: −1.07 V vs. Fc^+/Fc; E1/2 in CO2 (second) [1]: −1.34 V; logK[CO2] ([2]; Table 1): 4.87; kbimolecular ([5]; first CO2 binding): 3.3 M⁻¹ s⁻¹ and 3.31 M⁻¹ s⁻¹; kf (20% CO2) ([5]; forward rate constant, 20% CO2): 0.131 s⁻¹
